Test results: article PMC5784132, “Investigation of 20S-hydroxyvitamin D3 analogs and their 1α-OH derivatives as potent vitamin D receptor agonists with anti-inflammatory activities” (Scientific Reports, 2018)

Target: T1, mouse CYP27B1 (Mus musculus, UniProt O35084)
T1 construct: made in house; host or cells: E. coli
T1 sequence (O35084 1-507): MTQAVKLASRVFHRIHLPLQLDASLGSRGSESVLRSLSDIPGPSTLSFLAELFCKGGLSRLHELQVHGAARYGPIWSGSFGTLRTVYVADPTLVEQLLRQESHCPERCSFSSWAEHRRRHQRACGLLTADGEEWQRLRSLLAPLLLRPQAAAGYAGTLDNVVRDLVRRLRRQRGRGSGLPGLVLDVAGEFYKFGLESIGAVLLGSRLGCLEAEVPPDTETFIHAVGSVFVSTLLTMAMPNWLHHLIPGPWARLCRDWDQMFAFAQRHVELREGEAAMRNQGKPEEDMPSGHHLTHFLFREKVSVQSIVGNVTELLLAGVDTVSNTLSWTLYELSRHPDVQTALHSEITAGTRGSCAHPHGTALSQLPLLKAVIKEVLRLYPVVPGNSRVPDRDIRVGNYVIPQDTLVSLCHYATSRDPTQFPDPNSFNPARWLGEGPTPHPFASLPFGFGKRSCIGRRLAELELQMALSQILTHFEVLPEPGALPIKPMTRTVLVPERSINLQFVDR
Assay: Metabolism (1α-hydroxylation) of analogs by mouse CYP27B1
Format: in vitro ADME
Method: In order to make the 1α-OH derivatives of the 20S(OH)D3 analogs enzymatically, and to assess their likely capacity to be 1α-hydroxylated in vivo, the ability of mouse CYP27B1 to hydroxylate these metabolites was examined. 25(OH)D3, the major natural substrate for CYP27B1[2],[30], was included for comparison. The 20S(OH)D3 analogs were incorporated into phospholipid vesicles and incubated with CYP27B1, then the extent of their metabolism was determined by HPLC (Table 2). All analogs tested except 33 were metabolized by CYP27B1. In each case only a single metabolite was produced, assumed to be the 1α-OH derivative based on the known high specificity of the enzyme for the 1α-position[24],[30],[31]. […] Metabolism of 4 was almost twice that of 20S(OH)D3 and metabolism of 23 almost three fold. Thus, the modifications to C24 and/or C25 seen in 13, 4 and 23 enhanced their ability to be metabolized by CYP27B1. […] In contrast, the introduction of an amide linkage into the side chain, as in 33, prevented its hydroxylation by CYP27B1.
Rat CYP24A1, mouse CYP27B1 and adrenodoxin and human adrenodoxin reductase were expressed in E. coli and purified as described before[28],[30],[35]. To test metabolism of each analog, they were incorporated into phospholipid vesicles made from dioleoyl phosphatidylcholine and cardiolipin by sonication, as before[24],[28]. The substrates in vesicles (510 µM phospholipid) were incubated at 37 °C with either CYP24A1 (0.14 µM) or CYP27B1 (0.8 µM) in a reconstituted system containing adrenodoxin (15 µM) and adrenodoxin reductase (0.4 µM). Samples from incubations with CYP24A1 were extracted with dichloromethane and analysed by HPLC using a 25 cm Grace Alltima C18 column, as before[27],[28]. Products (except 33) were separated using an acetonitrile on water gradient (45% to 100% for 20 min then 100% acetonitrile for 40 min at a flow rate of 0.5 mL/min). For the more polar 33, the acetonitrile gradient was 30% to 100% acetonitrile for 30 min then 100% acetonitrile for 20 min, at 0.5 mL/min. Products from incubations with CYP27B1 were similarly extracted with dichloromethane and analyzed by reverse phase HPLC using a 15 cm Grace Smart C18 column and an acetonitrile in water gradient (10 min 45% to 100% acetonitrile then 20 min at 100% acetonitrile, at 0.5 mL/min).

Product (% total secosteroids) (0.018 mol/mol phospholipid, 0.8 µM mouse CYP27B1, 20 min, 37 °C)	conversion to product by CYP27B1, fold higher than 20S(OH)D3 (20 min incubation) [fold]	Structure (SMILES)
21.1	–	C=C1CC[C@H](O)C/C1=C/C=C1\CCC[C@@]2(C)[C@H]1CC[C@@H]2[C@@](C)(O)CCCC(C)C [20S(OH)D3, 20S-hydroxyvitamin D3]
–	4.3	C=C1CC[C@H](O)C/C1=C/C=C1\CCC[C@@]2(C)[C@H]1CC[C@@H]2[C@@](C)(O)CCOC(C)C [compound 13]
